# From PubChem BioAssay (NCI)
# Several values for one entry are separate records, joined by “and”; a condition that tells them apart may be missing. Identical values can stand only once.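 Protocol summary: plate cells (96-well), add compound at 5 concentrations, incubate 48 h, interpolate endpoints linearly. TGI: concentration producing complete growth inhibition.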
# Legend:
# Experiment in all cases: DTP human tumour cell line panel, 48 h
# A498 renal = system: A498 renal
# CCRF-CEM leukemia = system: CCRF-CEM leukemia
# HCT-116 colon = system: HCT-116 colon
# KM12 colon = system: KM12 colon
# LOX IMVI melanoma = system: LOX IMVI melanoma
# MALME-3M melanoma = system: MALME-3M melanoma
# MOLT-4 leukemia = system: MOLT-4 leukemia
# NCI-H460 lung = system: NCI-H460 lung
# PC-3 prostate = system: PC-3 prostate
# SK-MEL-5 melanoma = system: SK-MEL-5 melanoma
# SK-OV-3 ovarian = system: SK-OV-3 ovarian
# T-47D breast = system: T-47D breast
# UACC-257 melanoma = system: UACC-257 melanoma
# UACC-62 melanoma = system: UACC-62 melanoma
Compound,TGI (A498 renal),TGI (CCRF-CEM leukemia),TGI (HCT-116 colon) [µM],TGI (KM12 colon) [µM],TGI (LOX IMVI melanoma) [µM],TGI (MALME-3M melanoma) [µM],TGI (MOLT-4 leukemia),TGI (NCI-H460 lung) [µM],TGI (PC-3 prostate) [µM],TGI (SK-MEL-5 melanoma) [µM],TGI (SK-OV-3 ovarian),TGI (T-47D breast),TGI (UACC-257 melanoma) [µM],TGI (UACC-62 melanoma) [µM]
COc1ccc(-c2c(C#N)c(N)n(C3OCC(OC(C)=O)C(OC(C)=O)C3OC(C)=O)c(=S)c2C#N)cc1 (centres undefined),70.1 µM and 84.2 µM,77.8 µM and 98.3 µM,> 100,> 100,> 100,> 100,51.1 µM and 48 µM,> 100,> 100,> 100,85.2 µM and > 100 µM,81.6 µM and > 100 µM,> 100,> 100
CNc1ncnc2c1ncn2C1C=CC(COS(N)(=O)=O)C1 (centres undefined),> 100 µM,> 100 µM,> 100,> 100,> 100,> 100,> 100 µM,> 100,> 100,> 100,> 100 µM,> 100 µM,> 100,> 100
O=C1c2cc(Cl)ccc2-n2cnnc2C2CSCN12 (centres undefined),> 100 µM,> 100 µM,> 100,> 100,> 100,> 100,> 100 µM,> 100,> 100,> 100,> 100 µM,> 100 µM,> 100,> 100
O=C1CCCCC/C1=C\c1cccc(Cl)c1,> 100 µM,30.4 µM,> 100,> 100,> 100,> 100,> 100 µM,87.7,80.4,> 100,> 100 µM,> 100 µM,> 100,> 100
COC(=O)[C@@H]1CN(C(C)=O)C(=O)N1,> 100 µM,> 100 µM,> 100,> 100,> 100,> 100,> 100 µM,> 100,> 100,> 100,> 100 µM,> 100 µM,> 100,> 100
COC1(OC)c2no[n+]([O-])c2CCC1O (centres undefined),> 100 µM,> 100 µM,> 100,> 100,> 100,> 100,> 100 µM,> 100,> 100,> 100,> 100 µM,> 100 µM,> 100,> 100
Cn1c2ccccc2c2c(-c3ccccc3)cc3c(c21)C(=O)C=CC3=O,6.18 µM,0.538 µM,2.91,> 8.77,> 10,4.17,1.1 µM,> 10,> 6.39,> 9.24,> 10 µM,4.9 µM,4.62,2.64
CCCCCCCCCCCCCCCCCCNc1ccn(C2OC(COP(=O)(O)OCC3OC(n4cc(F)c(=O)[nH]c4=O)CC3O)C(O)C2O)c(=O)n1 (centres undefined),> 100 µM,> 49.7 µM,> 100,41.8,18.2,> 100,25.2 µM,> 100,19.7,> 100,> 100 µM,> 100 µM,> 100,> 74.4
CC1C2(C)OC(=N)C(C#N)(C(c3ccccc3)O2)C1(C#N)C#N (centres undefined),> 100 µM,67.6 µM,49.8,> 100,36.9,90.3,> 100 µM,25.1,88.7,30.3,> 100 µM,55.3 µM,68.7,56.4
O=C1CCC2C(O)c3cc4c(cc3C(c3ccc5c(c3)OCO5)N12)OCO4 (centres undefined),> 100 µM,> 100 µM,> 100,> 100,> 100,> 100,> 100 µM,> 100,> 100,> 100,> 100 µM,> 100 µM,> 100,> 100
O=C(ON=C1c2ccccc2C(Br)C(Br)c2ccccc21)c1cc([N+](=O)[O-])cc([N+](=O)[O-])c1 (centres undefined),33.1 µM,3.65 µM,32.5,37.4,28.8,33,45.1 µM,38.2,> 73.5,30.7,66.8 µM,76.7 µM,33.2,38.5
